# Tests used:
# [1] = Plasma concentration analysis in topically treated chickens; conditions: Compound of Example 1 treatment, topical spray 7.5 mg/kg once daily
# Protocol: To explore the therapeutic potential of the compounds of the present disclosure, live chickens with mite infestation (Dermanyssus gallinae) are treated topically with solutions of test compound, with Fipronil as a positive control. Test solutions are prepared by dissolving the test compound in a mixture of 2-butoxyethanol, ethanol, and water (7:2:1) to reach a final concentration of 0.25% (w/v).
# The test solution is administered using a mechanical spray pump delivering 0.5 mL of solution per actuation. The test solution is sprayed over the entire surface of the animal's body from a distance of 10-20 centimeters, resulting in direct contact of the solution with the animal's skin. The dosage applied to each animal is 3 mL/kg, equivalent to 7.5 mg/kg (kg live weight). The dosage is achieved using six actuations of the spray per kg of body weight per day. The treatment is administered once daily for 5 days at 24 hours intervals. One animal is left untreated as a negative control.
# Blood samples are taken from each animal before the first treatment (T=0), and at 24-hour intervals thereafter. Each egg produced after a treatment is collected for later analysis.
# Plasma samples are derived from each blood sample using standard procedures immediately after blood collection. Plasma is stored frozen at −80° C. until the time of analysis. Samples are then thawed at room temperature and extraction is performed by solid phase extraction (SPE) (Strata-X 33. Polymeric Reversed Phase, 60 mg/3 mL, Phenomenex) on an aliquot of sample (100 μl) pretreated for protein precipitation with 300 μl of acetonitrile. After protein precipitation, the samples are well vortexed and then centrifuged (12000 rpm, 10 min, RT). Supernatant is collected and transferred to clean Falcon tubes and diluted with 3 ml of water. Strata-X columns are conditioned with 2 ml of methanol and with 2 ml of water. Samples are loaded after conditioning, and the columns are washed with 2 ml of water, and analytes are eluted with 2 nil of methanol, dried under nitrogen and then resuspended in 100 μl of acetonitrile for mass spectral analysis.
# A Thermo Q-exactive mass spectrometer (Thermo Fisher Scientific, Waltham, MA) is used. The LC system, governed by Chromeleon X-press software, consists of a binary pump, a thermostated autosampler, and a column compartment, all Dionex Ultimate 3000 series modules (Thermo Fisher Scientific, Waltham, MA). A volume of 2 μL is injected for each sample. Chromatographic separation of analytes is conducted in reverse-phase chromatography. A Luna Omega 1.6 μm Polar (CIS, 2.1 mm×100 mm) is used, and the mobile phases are (A) water and (B) acetonitrile, both containing 0.1% v/v formic acid. […]
# Plasma samples from Day 3 and Day 5 are analyzed.
# Dermanyssus gallinae = test: Antiparasitic efficacy on live chickens with natural mite infestation; assay type: in vivo; conditions: by day 5 of treatment; 0.25% (w/v) spray, 7.5 mg/kg once daily for 5 days
# Protocol: Two animals are treated with the compound of Example 1, and two animals are treated with Fipronil, while one animal is left untreated as a negative control. The infestation by D. gallinae is monitored by checking the density of mites in particular areas of the animal's bodies (feet, legs, and wings), comparing pre-treatment levels of infestation to post-treatment levels.
# When all pests have been eliminated, a 100% pest control capability was achieved. In the case of some chemical products, when the pest was not fully eliminated, the disinfestation capacity was measured by averaging the number of infesting organisms located in three distinct areas of the treated animals, at the beginning of the treatment, and at the end of the treatment.
# [2] = Egg concentration analysis from topically treated chickens; assay type: in vivo; conditions: eggs from Day 5
# Protocol: One animal is left untreated as a negative control.
# A modified and optimized QuEChERS protocol was employed to extract the compounds from eggs. The shell is manually removed, and then each egg is transferred to a clean beaker and homogenized with an electric mixer for small volumes. 5 grams of homogenized egg is put into a 50 mL Falcon tube, and 5 mL of water is added and the samples are shaken for 10 minutes. Next, 10 mL of acetonitrile is added and the samples are shaken again for 10 minutes. Then the roQ salts (4.0 g MgSO4, 1.0 g NaCl, 1.0 SCTD and 0.5 g SCDS, Phenomenex P/N KS08909) are added to each sample, and the mixture is well shaken for 10 minutes. Samples are then centrifuged at 2500 g for 5 minutes at room temperature, and the supernatant is transferred to an HPLC vial for analysis. The same HPLC-MS method is used as described above.
# One egg from two chickens is analyzed: one chicken treated with Fipronil and one chicken treated with the Compound of Example 1. The eggs are both from Day 5. The results are shown in the following tables expressed as relative LC-MS peak area: […]
# [3] = test system: adult worker honeybees, Apis mellifera L; test: Acute oral toxicity test in honeybees (OECD 213); assay type: in vivo
# Protocol: Untreated 50% w/v sucrose solution with 0.2% of propanol-water solution (ratio 80%-20%) is used as a negative control.
# The test item is diluted with aqueous sucrose solution 50% (w/v) to prepare the oral solutions. The bees used for the oral test are anesthetized with carbon dioxide for the time necessary to immobilize them and placed inside the test cages; 2 hours before the treatment they are starved. A volume of 200 μL (20 μL/bee) of treated diet is administered to each cage with a dispenser (e.g., a syringe without tip), weighed before and after filling.
# The overall exposure period is 6 hours, during which consumption is monitored: the feeder is changed at the end of the six hours or once the treated diet has been consumed (usually within 3-4 hours). In both cases, the feeder is weighed and a new feeder with untreated 50% (w/v) sucrose solution is provided ad libitum, and the mean effective dose is calculated based on the actual consumption.
compound,measurement,setting,value
"N#Cc1nn(-c2c(Cl)cc(C(F)(F)F)cc2Cl)c2nc(O)cc(C(F)(F)F)c12 [Example 1, 1-(2,6-dichloro-4-(trifluoromethyl)phenyl)-6-hydroxy-4-(trifluoromethyl)-1H-pyrazolo[3,4-b]pyridine-3-carbonitrile]",Plasma concentration of analyte,"[1]; Chicken 3, 3 days",0.01 ppm
same,Plasma concentration of analyte,"[1]; Chicken 3, 5 days",0.03 ppm
same,Plasma concentration of analyte,"[1]; Chicken 4, 3 days",0.7 ppm
same,Plasma concentration of analyte,"[1]; Chicken 4, 5 days",1.2 ppm
same,Chickens free of mites,Dermanyssus gallinae,100%
same,Accumulation in eggs of treated chickens compared to Fipronil,[2],substantially less accumulation in the eggs
same,% CM (4 hours),"[3]; group T1, dose 0.002 μg/bee",0.0%
same,% CM (24 hours),"[3]; group T1, dose 0.002 μg/bee",0.0%
same,% CM (48 hours),"[3]; group T1, dose 0.002 μg/bee",0.0%
same,% CM (4 hours),"[3]; group T2, dose 0.004 μg/bee",0.0%
same,% CM (24 hours),"[3]; group T2, dose 0.004 μg/bee",19.2%
same,% CM (48 hours),"[3]; group T2, dose 0.004 μg/bee",17.4%
same,% CM (4 hours),"[3]; group T3, dose 0.006 μg/bee",0.0%
same,% CM (24 hours),"[3]; group T3, dose 0.006 μg/bee",15.4%
same,% CM (48 hours),"[3]; group T3, dose 0.006 μg/bee",13.0%
